These results are taken from patent publication US20080220416A1, “Compositions for Inhibiting Cell Growth and Inducing Apoptosis in Cancer Cells and Methods of Use Thereof” (THE BOARD OF TRUSTEES OF THE UNIVERSITY OF ILLINOI, priority 2004, published 2008).

Experiment [1] concerns MDA-MB231 breast cancer cells. Kind of experiment: Extracellular matrix invasion of MDA-MB231 cells (Matrigel Invasion Chambers). As to conditions: siRNA transfection, 22 hours. In kind it is cell-based, human. The method, then: Cytotoxicity and growth of transfected cells were estimated by a standard assay used for cancer drug screening, through the total amount of TCA-precipitated cell proteins after drug treatment (Likhitwitayawuid, K et al., 1993, J Nat Prod 56:30-38): 200 μl of cell suspension (10^5 cells/ml) were added to each well in a 96-well plate. After incubation at, 37° C., in 5% CO2 (30 minutes to 72 hours depending on the time course chosen), 50 μl 50% trichloroacetic acid was added to each well. After incubation at 4° C. for 1 hour, precipitates were washed with water 4-5 times and air dried overnight. One hundred μl of SRB solution (0.4% sulforhodamine B in 1% acetic acid, filtered before use) was added to each well for 30 minutes. Wells were washed with 1% acetic acid 4-5 times and air dried. Two hundred μl 10 mM Tris base was added to each well. Plates were shaken for 5-10 minutes and OD at 490 nm (OD490) was recorded via ELISA reader. To assay matrix invasion, 300 μl of cell suspension (10^6 cells/mL in serum-free medium) were added to invasion inserts (BioCoat Matrigel Invasion Chambers, Becton Dickinson, Bedford, Mass.) and incubated for 22 hours at 37° C., 5% CO2. Cells were stained with 0.9% crystal violet in 10% ethanol for 20 minutes. Inserts were dipped in water several times and air dried. After removal of the non-invading cells from the interior of the inserts, stained invading cells were lysed in 10% acetic acid and OD595 was determined.
Notch silencing was confirmed by Western blot as described above in Example 15 using commercial goat polyclonal antibodies from Santa Cruz Biotechnology to Notch-1 (C-20, Cat# sc-6014 S). For the Western blot analyses, MDA-MB231 cells were treated with 25 μM IL-X for 48 h or with 0.5, 1 or 2 μM z-Leu-Leu-Nle-CHO for 24 h. Cytotoxicity and matrix invasion assays were performed as described above in Example 15. For the cytotoxicity assays, MDA-MB231 cells were treated with […] IL-X for up to 3 days or with 0-20 μM z-Leu-Leu-Nle-CHO for up to 4 days. […]

For experiment [2], the system named is NOXA. Nature of the experiment: NOXA in whole cell protein extracts of subcutaneous C8161 tumors. The note with it: 2.5 mg/kg; versus PBS. In kind it is in vivo, Nude mice.
Protocol: Initially, 1×10^6 aggressive melanoma cells (C8161) (ATCC, Rockville, Md.) were injected subcutaneously in Nude (nulnu) mice (6-7 weeks old; Harlan, Indianapolis, Ind.) on day 0, and the tumors were allowed bearing groups (5 mice/group) and injected with either (a) PBS as control; (b) bortezomib at 1.25 mg/kg; or (c) bortezomib at 2.5 mg/kg. Treatment began on day 8 when tumors were palpable and injected four times peri-tumorally. On day 20, mice were euthanized and tumors dissected from surrounding tissue and weighted. […] Expanding the in vitro studies to in vivo studies, subcutaneous tumors produced in Nude mice (as described above in Example 7) were tested to detect NOXA using whole cell protein extracts as described above.
Experiment [3] concerns NOXA. Kind of experiment: Bortezomib on NOXA in SAOS2 osteogenic sarcoma cells (Western blot). In kind it is cell-based. As to conditions: SAOS2, p53-null; 1 μM; 24 hr exposure. The method, then: To test whether the NOXA inducing effect of bortezomib is limited to melanomas, SAOS2 cells (ATTC, Rockville, Md.), an osteogenic sarcoma cell line (p53-null) was exposed to 1 μM bortezomib. SAOS2 cells were tested for p53 expression and induction of NOXA expression before and during a 24 hr exposure to bortezomib (1 μM). The cells were assayed by Western blot using antibodies to NOXA, p53 and β-actin as described above.
In general terms: Immunoblotting shows a protein as a band on a membrane.

Experiment [4] has as its system NOXA. Kind of experiment: Western blot of pro-apoptotic proteins in normal melanocytes treated with z-Leu-Leu-Nle-CHO. In kind it is cell-based, human. The note with it: data not shown.
The test system of experiment [5] is melanoma cell lines. Kind of experiment: Apoptosis of melanoma cell lines treated with z-Leu-Leu-Nle-CHO (Annexin V FITC / propidium iodide flow cytometry). The note with it: each of nine melanoma cell lines; 10 μM for 24 h. In kind it is cell-based, human. The method, then:
The effect of z-Leu-Leu-Nle-CHO on apoptosis was tested in vitro using normal human melanocytes and several melanoma cell cultures. Prior to testing, cutaneous (C8161, SK-MeI-28, SK-MeI-100, SK-MeI-5, C81-61), uveal or ocular (MUM2B, MUM2C, OCM-1A), and pulmonary metastases (RJ002L) melanoma cell lines were maintained in RPMI supplemented with 10% FBS. Normal human melanocytes were isolated from neonatal foreskins as previously described (Qin J et al., 2004, Mol Cancer Ther 3:895-902) and cultured with medium 154 containing growth supplements (Cascade Biologics, Portland, Oreg.).
To assess the effect of z-Leu-Leu-Nle-CHO on the cell lines, the cells were grown in suitable culture media. Highly proliferating cells (i.e., cells that had reached approximately 30% confluency) were exposed to z-Leu-Leu-Nle-CHO as described below. […]
Following treatment with z-Leu-Leu-Nle-CHO, the melanoma and melanocyte cell cultures were assayed for apoptotic cells using the APO TARGET Annexin V FITC staining kit (Biosource, Camarillo, Calif.) according to the manufacturer's instructions followed by flow cytometric analysis using FACScaliber (Becton Dickinson, Palo Alto, Calif.) as described in Qin, J. et al., 2001, Nat Med 7:385-386. In some cases, cell cycle and apoptosis analysis was measured using propidium iodide staining and flow cytometry as described. […]
A general note: Flow cytometry measures light scatter and fluorescence of single cells or particles in a stream.

In experiment [6] the test system is T47D:C42 breast cancer cells. Nature of the experiment: z-Leu-Leu-Nle-CHO plus Paclitaxel, growth inhibition of T47D:C42 cells. In kind it is cell-based, human. As to conditions: 0-0.8 μM with Paclitaxel, 48 h. The method, then:
Three different types of breast cancer cells were contacted with varying concentrations of z-Leu-Leu-Nle-CHO (0-0.8 μM) and the mitotic poison Paclitaxel (0.01-1 μM). MDA-MB231 cells were obtained from ATCC (Rockville, Md.). T47D:C42 and T47D:A18 cells were a kind gift of Debra Tonetti (University of Illinois-Chicago). MDA-MB231 cells were cultured in DMEM medium with 10% FBS. T47D:C42 and T47D:A18 cells were propagated in RPMI 1640 with 10% FBS, 100 μM non-essential amino acid and 6 ng/ml insulin. Gamma-secretase inhibitor z-Leu-Leu-Nle-CHO (Calbiochem 565750) was dissolved in DMSO, aliquoted and stored at −80° C. Paclitaxel (Sigma, St. Louis Mo.) was dissolved in DMSO, aliquoted and stored at −80° C.
To determine whether z-Leu-Leu-Nle-CHO treatment potentiates the effect of Paclitaxel on human breast cancer cells, MDA-MB231, T47D:C42 and T47D:A18 cells were treated for 48 h with 0-0.8 μM z-Leu-Leu-Nle-CHO and various concentrations of Paclitaxel (0.008-1 μM) Following the z-Leu-Leu-Nle-CHO and Paclitaxel treatment, the cells were tested for growth inhibition as described above in Example 13.

Entries after “also recorded” stand apart in the source; their conditions may differ. Square brackets hold non-standard residues; d marks the D form. Peptide text beside a SMILES is read from it. * marks the point of attachment. Nle = CCCC[C@H](N)C(=O)O; Cbz = O=C(OCc1ccccc1)*

Turning to “5′-AAGTGTCTGAGGCCAGCAAGA-3′ [Notch-1 siRNA]”, the extracellular matrix invasion entry in experiment [1] is recorded as “significantly inhibited extracellular matrix invasion”.

Take `CC(C)C[C@H](NC(=O)[C@H](Cc1ccccc1)NC(=O)c1cnccn1)B(O)O` [bortezomib, N-(2-pyrazine)carbonyl-L-phenylalanine-L-leucine boronic acid]: the “NOXA in treated tumors” value in experiment [2] was “did induce NOXA in these treated tumors”. Moreover, in experiment [3], the “time course of NOXA induction” value is listed as “induction of NOXA occurred beginning at 3-6 hrs with more prominent levels detected at 18-24 hrs”.

Turning to `CCCC[C@@H](C=O)NC(=O)[C@H](CC(C)C)NC(=O)[C@H](CC(C)C)NC(=O)OCc1ccccc1` [z-Leu-Leu-Nle-CHO, N-benzyloxycarbonyl-leucyl-leucyl-norleucinal] (Cbz-Leu-Leu-[Nle]-aldehyde), the “induction of pro-apoptotic proteins (Bak, Bim, NOXA)” value in experiment [4] is on record as “did not induce any of the pro-apoptotic proteins; also recorded: did not induce NOXA in normal melanocytes”. Moreover, the induction of apoptosis result in experiment [5] was “triggered a dose-dependent increase in apoptosis”. Moreover, the “effect on Paclitaxel cell growth inhibition” value in experiment [6] is reported as “potentiated the effects of Paclitaxel on cell growth inhibition”.
